Literature values as cited in patent US11883453B2, “Formulation based on medicinal plant, or part or extract thereof, use of the formulation and product including said formulation” (priority 2018, dated 2024).

Tests used:
[1] = rate proportional to concentration
[2] = disk-diffusion
3T3 fibroblast strains [3] = details: MTT, 3T3 fibroblasts
3T3 fibroblast strains [4] = details: Scratch Assay, 3T3 fibroblasts, compared to Calendula extract

SMILES | Elimination of free radicals [1] | Antimicrobial activity (inhibition halos in agar) [2] | Cytotoxicity (3T3 fibroblast strains [3]) | Effect on in vitro healing (3T3 fibroblast strains [4])
C=C(C)[C@@H]1CC[C@]2(C)CC[C@]3(C)[C@H](CC[C@@H]4[C@@]5(C)CC[C@H](O)C(C)(C)[C@@H]5CC[C@]43C)[C@@H]12 [Lupeol] | excellent properties to eliminate free radicals | confirmed the antimicrobial activity | no toxicity found | 
CCCCCCCCCCCCCCCC(=O)OC1CCC2(C)C(CCC3(C)C2CCC2C4C(C)C(C)=CCC4(C)C(O)CC23C)C1(C)C (centres unmarked) [faradiol palmitate] |  |  |  | partial role in the healing process compared to the extract
CCCCCCCCCCCCCC(=O)OC1CCC2(C)C(CCC3(C)C2CCC2C4C(C)C(C)=CCC4(C)C(O)CC23C)C1(C)C (centres unmarked) [faradiol myristate] |  |  |  | partial role in the healing process compared to the extract
